# In patent publication US8551996B2, “Compounds, compositions, methods of synthesis, and methods of treatment” (Emory University, priority 2009, dated 2013):
# Target: T1, CRF-1 receptor (Homo sapiens, UniProt P34998)
# T1 construct: expressed in transfected cells; host or cells: HEK293T/17
# T1 sequence (P34998 24-415): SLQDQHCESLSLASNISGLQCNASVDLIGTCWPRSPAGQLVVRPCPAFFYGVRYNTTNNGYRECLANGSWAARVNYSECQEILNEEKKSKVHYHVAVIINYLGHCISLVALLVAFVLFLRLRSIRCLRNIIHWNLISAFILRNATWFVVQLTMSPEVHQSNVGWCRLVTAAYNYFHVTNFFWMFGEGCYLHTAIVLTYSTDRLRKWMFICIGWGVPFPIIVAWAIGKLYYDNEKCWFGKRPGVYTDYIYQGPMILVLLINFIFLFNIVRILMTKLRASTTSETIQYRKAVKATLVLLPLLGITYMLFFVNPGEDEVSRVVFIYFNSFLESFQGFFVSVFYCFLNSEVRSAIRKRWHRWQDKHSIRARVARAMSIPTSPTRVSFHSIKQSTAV
# Experiment: CRF-1 receptor competitive binding vs. [125I]sauvagine
# Details: for Ki: transfected HEK293T/17 cells expressing the CRF-1 receptor, radioligand [125I]sauvagine, read-out: CRF-1 Receptor Binding Affinities (vs. [125I] Sauvagine) Ki; for affinity for the CRF-1 receptor (in words): vs. [125I]sauvagine, only slightly reduced from that found for R121919
# From the text: Pyrido[2,3-b]pyrazin-2-ones of type VI (Table 1) were synthesized according to the procedure reported by Dzierba, et al., (J. Med. Chem. 2004, 47, 5783-5790) as shown in Scheme 21.
Compound,Ki [nM],affinity for the CRF-1 receptor (in words)
"CCCCN(CC)c1cc(C)nc2c1NC(=O)CN2c1ccc(C)cc1Br [Compound 185, 4-(2-Bromo-4-methylphenyl)-8-(butylethylamino)-6-methyl-3,4-dihydra-1H-pyrido[2,3-b]pyrazin-2-one]",6.2 ± 1.4,high affinity
"CCCCN(CC)c1cc(C)nc2c1NC(=O)CN2c1ccc(Br)cc1C [Compound 188, 8-(Butylethylamino)-4-(2-methyl-4-bromophenyl)-6-methyl-3,4-dihydro-1H-pyrido[2,3-b]pyrazin-2-one]",5.7 ± 0.3,high affinity
"CCCCN(CC)c1cc(C)nc2c1NC(=O)CN2c1ccc(C)cc1C [Compound 191, 8-(Butylethylamino)-4-(2,4-dimethylphenyl)-6-methyl-3,4-dihydro-1H-pyrido[2,3-b]pyrazin-2-one]",9.1,high affinity
